Calls of active or inactive are those of the source. No cut-off for these calls is given here.
Experiments:
Transthyretin [1] = target: T1, Transthyretin (Homo sapiens, UniProt P02766, V50M); assay: Binding affinity to N-terminal hexa-histidine tagged TTR V30M mutant (unknown origin) expressed in Escherichia coli assessed as dissociation constant at 60 uM by ITC assay
Transthyretin [2] = target: T1, Transthyretin; assay: (§1) Inhibition of recombinant N-terminal hexa-histidine tagged TTR V30M mutant (unknown origin) expressed in Escherichia coli assessed as acid mediated amyloid-like fibril formation by measuring turbidity incubated for 1 week at 310K in presence of sodium acetate by absorbance based assay
[3] = system: Transthyretin (Homo sapiens), P02766 [V50M]; assay: Binding affinity to N-terminal hexa-histidine tagged TTR V30M mutant (unknown origin) expressed in Escherichia coli assessed as change in enthalpy at 60 uM by ITC assay
[4] = system: Transthyretin (Homo sapiens), P02766 [V50M]; assay: as §1, with “fluorescence intensity at 1 uM” for “turbidity”, “4 days” for “1 week”, “thioflavin T” for “absorbance”, “fluorescence spectrophotometric analysis” for “assay”; details: time 4.0 day
Transthyretin [5] = target: T1, Transthyretin; assay: Binding affinity to recombinant N-terminal hexa-histidine tagged TTR V30M mutant (unknown origin) expressed in Escherichia coli assessed as quenching of intrinsic tryptophan fluorescence by measuring apparent dissociation constant incubated for 60 mins by fluorescence based analysis; details: read-out: Kd(app)
[6] = system: Transthyretin (Homo sapiens), P02766 [V50M]; assay: Binding affinity to N-terminal hexa-histidine tagged TTR V30M mutant (unknown origin) expressed in Escherichia coli assessed as gibbs free energy change at 60 uM by ITC assay
[7] = system: Transthyretin (Homo sapiens), P02766 [V50M]; assay: Binding affinity to N-terminal hexa-histidine tagged TTR V30M mutant (unknown origin) expressed in Escherichia coli assessed as change in entropy at 60 uM by ITC assay

SMILES | Kd (Transthyretin [1]) | Ki (Transthyretin [2]) | deltaH [3] | inhibition [4] | Kd (Transthyretin [5]) | deltaG [6] | -TdeltaS [7]
COc1cc(/C=C/c2cc(O)cc(O)c2)ccc1O | 1200 nM | 3200 nM | -13 kcal/mol | Active | 730 nM | -8.1 kcal/mol | 4.7 kcal/mol
COc1cc(O)cc(/C=C/c2ccc(O)cc2)c1 | 2400 nM | 3400 nM | -14 kcal/mol | Active | 1200 nM | -7.7 kcal/mol | 6.2 kcal/mol
Oc1cc(O)cc(/C=C/c2c(O)cccc2O)c1 | 11000 nM | 54000 nM | -8.5 kcal/mol | inactive | 14000 nM | -6.8 kcal/mol | 1.7 kcal/mol
O=C(O)c1cc(-c2ccc(F)cc2F)ccc1O |  |  | -13 kcal/mol | Active |  |  | 5.2 kcal/mol
O=C(O)c1ccc2nc(-c3cc(Cl)cc(Cl)c3)oc2c1 |  |  | -5 kcal/mol | Active |  |  | -4 kcal/mol
COc1cc(/C=C/c2ccc(OC)c(OC)c2)cc(OC)c1 [(E)-3,4,3',5'-TETRAMETHOXYSTILBENE] |  | 49000 nM |  | inactive | 6900 nM |  | 
Oc1cc(O)cc(/C=C/c2ccc(O)cc2O)c1 [OXYRESVERATROL] | 1400 nM | 4500 nM | -16 kcal/mol | Active | 2400 nM | -8.1 kcal/mol | 7.5 kcal/mol
Oc1cc(O)cc(/C=C/c2ccc(O)c(O)c2)c1 [PICEATANNOL] | 1500 nM | 5400 nM | -14 kcal/mol | Active | 2100 nM | -8 kcal/mol | 6.4 kcal/mol
COc1cc(/C=C/c2ccc(O)cc2)cc(OC)c1 [PTEROSTILBENE] | 4600 nM | 3500 nM | -14 kcal/mol | Active | 1900 nM | -7.3 kcal/mol | 6.8 kcal/mol
Oc1ccc(/C=C/c2cc(O)cc(O)c2)cc1 [RESVERATROL] | 1500 nM | 2700 nM | -15 kcal/mol | Active | 1400 nM | -8 kcal/mol | 6.6 kcal/mol
CC(=O)Oc1ccc(/C=C/c2cc(OC(C)=O)cc(OC(C)=O)c2)cc1 [TRIACETYLRESVERATROL] |  | 2200 nM |  | Active |  |  | 
COc1ccc(/C=C/c2cc(OC)cc(OC)c2)cc1 [TRISMETHOXYRESVERATROL] |  |  |  | inactive | 4100 nM |  | 
